From publication PMC8243326, “Data-Driven Ensemble Docking to Map Molecular Interactions of Steroid Analogs with Hepatic Organic Anion Transporting Polypeptides” (Journal of Chemical Information and Modeling, 2021)

Assays:
OATP2B1 = biological target: T1, OATP2B1 (Homo sapiens, UniProt O94956); assay: Pyranine uptake inhibition in A431 cells overexpressing OATP2B1; details: for selectivity for OATP2B1 (in words): vs OATP1B1 and OATP1B3
T1 sequence (O94956 1-709): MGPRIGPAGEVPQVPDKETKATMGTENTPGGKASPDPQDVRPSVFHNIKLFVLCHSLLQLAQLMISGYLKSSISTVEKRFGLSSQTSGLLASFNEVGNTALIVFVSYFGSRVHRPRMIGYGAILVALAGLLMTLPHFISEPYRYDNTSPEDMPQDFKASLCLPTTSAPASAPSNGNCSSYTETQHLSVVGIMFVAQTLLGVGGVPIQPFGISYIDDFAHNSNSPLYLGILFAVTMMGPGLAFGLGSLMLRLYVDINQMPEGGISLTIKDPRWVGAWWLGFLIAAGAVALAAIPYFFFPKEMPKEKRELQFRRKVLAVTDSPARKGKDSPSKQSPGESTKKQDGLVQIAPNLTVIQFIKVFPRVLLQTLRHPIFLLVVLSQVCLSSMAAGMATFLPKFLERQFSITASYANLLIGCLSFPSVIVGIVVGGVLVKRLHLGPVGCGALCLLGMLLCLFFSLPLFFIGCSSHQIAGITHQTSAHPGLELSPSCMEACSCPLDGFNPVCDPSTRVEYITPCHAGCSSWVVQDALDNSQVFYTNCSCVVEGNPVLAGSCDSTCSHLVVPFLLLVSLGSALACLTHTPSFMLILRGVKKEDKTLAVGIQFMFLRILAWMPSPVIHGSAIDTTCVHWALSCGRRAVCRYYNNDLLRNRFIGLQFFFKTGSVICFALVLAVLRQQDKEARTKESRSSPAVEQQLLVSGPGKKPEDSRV
Method: (§1) Compounds with measured bioactivities (Km, IC50, Ki, and EC50 bioactivity end points or percentage inhibition values) on OATP1B1 (n = 440 compounds), OATP1B3 (n = 936 compounds), or OATP2B1 (n = 173 compounds) were collected from the open domain by utilizing a KNIME workflow, which collects data from five independent data sources as described in Tuerkova et al.[15] […] IC50 values were calculated based on transport inhibition measurements (see below) by Hill1 fit, using the Origin Pro8.6 software (OriginLab Corporation, Northampton, MA, US).
(§2) 20 mM stocks in DMSO were stored for further usage at −20 °C. A431 cells overexpressing OATPs, OATP1B1, OATP1B3, or OATP2B1 or mock transfected controls were generated previously.[60] A431 cells were maintained in DMEM medium (Thermo Fischer Scientific, Waltham, MA, US) supplemented with 10% fetal bovine serum, 2 mM L-glutamine, 100 units/mL penicillin, and 100 μg/mL streptomycin at 37 °C with 5% CO2. […] The uptake of pyranine was measured on microplates based on the method developed by us previously.[60],[61]
(§3) Briefly, 1 day prior to the uptake measurement cells (8 × 10^4 cells/well in 200 μL DMEM) were seeded on 96-well plates. On the following day, the medium was removed, and the cells were washed three times with 200 μL of phosphate-buffered saline (PBS, pH 7.4) and preincubated with 50 μL of uptake buffer (125 mM NaCl, 4.8 mM KCl, 1.2 mM CaCl2, 1.2 mM KH2PO4, 12 mM MgSO4, 25 mM MES (2-(N-morpholino)ethanesulfonic acid, and 5.6 mM glucose, pH 5.5) with or without increasing concentrations of the tested compounds. The reaction was started by the addition of 50 μL of uptake buffer containing pyranine in a final concentration of 10 μM (OATP1B1) or 20 μM (OATP1B3 and OATP2B1). Cells were incubated with the dye at 37 °C for 15 min (OATP1B1 and OATP2B1) or 30 min (OATP1B3), after which the supernatant was removed, and the cells were washed three times with 200 μL of ice-cold PBS. Fluorescence (in 200 μL of PBS/well) was determined in an Enspire plate reader (PerkinElmer, Waltham, MA, Ex/Em = 403/517 nm). OATP-dependent transport was calculated by extracting fluorescence measured in mock transfected cells. Transport activity was calculated based on the fluorescence signal in the absence (100%) of the tested compounds. Experiments were repeated at least three times on cells deriving from different passages.
(§4) IC50 values were calculated by Hill1 fit, using the (OriginLab Corporation, Northampton, MA, US).

OATP1B3 = biological target: T2, OATP1B3 (Homo sapiens, UniProt Q9NPD5); assay: Pyranine uptake inhibition in A431 cells overexpressing OATP1B3
T2 sequence (Q9NPD5 1-702): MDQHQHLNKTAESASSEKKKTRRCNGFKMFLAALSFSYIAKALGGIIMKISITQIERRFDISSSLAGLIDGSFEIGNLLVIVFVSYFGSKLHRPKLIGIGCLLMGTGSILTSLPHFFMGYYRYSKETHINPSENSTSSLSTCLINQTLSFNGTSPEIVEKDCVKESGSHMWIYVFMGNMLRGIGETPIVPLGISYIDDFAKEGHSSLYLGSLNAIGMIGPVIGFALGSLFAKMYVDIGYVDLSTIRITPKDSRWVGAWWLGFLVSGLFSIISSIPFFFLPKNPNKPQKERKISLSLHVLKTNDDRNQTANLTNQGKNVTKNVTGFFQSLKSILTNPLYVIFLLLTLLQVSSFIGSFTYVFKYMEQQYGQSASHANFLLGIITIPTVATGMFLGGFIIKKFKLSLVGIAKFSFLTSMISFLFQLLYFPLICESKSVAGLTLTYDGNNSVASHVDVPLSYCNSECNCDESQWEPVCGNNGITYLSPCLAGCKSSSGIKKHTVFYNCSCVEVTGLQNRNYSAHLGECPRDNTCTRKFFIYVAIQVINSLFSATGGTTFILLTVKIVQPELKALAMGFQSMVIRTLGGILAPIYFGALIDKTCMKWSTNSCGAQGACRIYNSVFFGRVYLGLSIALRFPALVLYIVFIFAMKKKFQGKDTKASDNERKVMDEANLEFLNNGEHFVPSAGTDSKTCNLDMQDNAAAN
Method: as §1, §2, §3, §4

OATP1B1 = biological target: T3, OATP1B1 (Homo sapiens, UniProt Q9Y6L6); assay: Pyranine uptake inhibition in A431 cells overexpressing OATP1B1; details: for activity on OATP1B1 and OATP1B3 (in words): statement covers both OATP1B1 and OATP1B3
T3 sequence (Q9Y6L6 1-691): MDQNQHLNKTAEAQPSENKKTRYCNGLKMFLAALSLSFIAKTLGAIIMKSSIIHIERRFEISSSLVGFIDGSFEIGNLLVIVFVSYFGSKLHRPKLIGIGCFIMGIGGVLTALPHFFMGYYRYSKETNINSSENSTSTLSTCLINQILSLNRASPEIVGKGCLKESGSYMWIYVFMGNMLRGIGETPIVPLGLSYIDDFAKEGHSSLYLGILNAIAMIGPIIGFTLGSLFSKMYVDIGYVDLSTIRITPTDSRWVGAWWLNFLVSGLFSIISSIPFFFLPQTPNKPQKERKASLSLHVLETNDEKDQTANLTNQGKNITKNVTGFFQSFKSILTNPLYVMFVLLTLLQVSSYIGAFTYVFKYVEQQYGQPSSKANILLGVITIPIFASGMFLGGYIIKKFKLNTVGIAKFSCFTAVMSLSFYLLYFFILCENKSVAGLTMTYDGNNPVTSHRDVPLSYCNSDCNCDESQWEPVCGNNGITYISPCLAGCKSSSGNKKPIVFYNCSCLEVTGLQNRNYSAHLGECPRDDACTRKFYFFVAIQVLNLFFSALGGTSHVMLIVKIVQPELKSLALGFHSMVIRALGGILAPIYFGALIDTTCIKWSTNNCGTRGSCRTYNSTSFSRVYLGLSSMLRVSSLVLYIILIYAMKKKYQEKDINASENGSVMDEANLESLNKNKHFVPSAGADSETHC
Method: IC50 values were calculated based on transport inhibition measurements (see below) by Hill1 fit, using the Origin Pro8.6 software (OriginLab Corporation, Northampton, MA, US).
as §2
Briefly, 1 day prior to the uptake measurement cells (8 × 10^4 cells/well in 200 μL DMEM) were seeded on 96-well plates. […] OATP-dependent transport was calculated by extracting fluorescence measured in mock transfected cells. Transport activity was calculated based on the fluorescence signal in the absence (100%) of the tested compounds. Experiments were repeated at least three times on cells deriving from different passages.
as §4

Structure (SMILES) | IC50 (OATP2B1) [µM] | IC50 (OATP1B3) [µM] | IC50 (OATP1B1) [µM] | fold decrease in affinity compared to hydroxyl derivative (compound 5) (OATP2B1; OATP2B1) [fold] | selectivity for OATP2B1 (in words) (OATP2B1) | activity on OATP1B1 and OATP1B3 (in words) (OATP1B1)
C[C@@]12CCC3c4ccc(O)cc4CCC3C1CCC2=O (stereo partly drawn) [Compound 1, 13α-estrone] | > 50 | > 50 | – | – | – | –
COc1ccc2c(c1)CCC1C2CC[C@@]2(C)C(=O)CCC12 (stereo partly drawn) [Compound 2] | 5.41 | > 50 | > 50 | – | – | –
C[C@@]12CCC3c4ccc(OCc5ccccc5)cc4CCC3C1CCC2=O (stereo partly drawn) [Compound 3] | 7.17 | > 50 | > 50 | – | – | –
COc1cc2c(cc1Br)C1CC[C@@]3(C)C(=O)CCC3C1CC2 (stereo partly drawn) [Compound 4] | 8.39 | > 50 | > 50 | 7 | selective | –
C[C@@]12CCC3c4cc(Br)c(O)cc4CCC3C1CCC2=O (stereo partly drawn) [Compound 5] | 1.19 | > 50 | > 50 | – | selective | –
C[C@@]12CCC3c4ccc(O)c(Br)c4CCC3C1CCC2=O (stereo partly drawn) [Compound 6] | 2.97 | 9.2 | 4.07 | – | – | weak to borderline inhibitory activity
C[C@@]12CCC3c4cc(I)c(O)cc4CCC3C1CCC2=O (stereo partly drawn) [Compound 7] | 0.6 | 18.2 | 22.5 | – | selective | –
C[C@@]12CCC3c4ccc(O)c(I)c4CCC3C1CCC2=O (stereo partly drawn) [Compound 8] | 3.58 | 8.28 | 9.28 | – | – | weak to borderline inhibitory activity
C[C@@]12CCC3c4cc(Cl)c(O)cc4CCC3C1CCC2=O (stereo partly drawn) [Compound 9] | 0.9 | > 50 | > 50 | – | selective | –
